The record followed here is patent publication US8853424B2 (Japan Science and Technology Agency, priority 2008, dated 2014).

In general, IC50 refers to the concentration that gives 50% inhibition.

In one assay the test system is transglutaminase (TGase). Nature of the assay: Measurement of TG (TGase inhibitory activity, monodansyl cadaverine / N,N-dimethylcasein fluorescence, FDSS 3000). In kind it is biochemical. In outline:
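Compound (1 μL of 10 mM stock) added to 0.1 mL reaction: 100 mM HEPES-NaOH pH 7.5, 1 mM CaCl2, 20 μM monodansyl cadaverine, 0.05 mg/mL N,N-dimethylcasein, 5 μg/mL TGase. Rate of fluorescence change at 340 nm measured; DMSO control set to 100; TG50 is the concentration halving activity.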

In assay [1] the test system is Truncated N-terminal huntington 150 Q-EGFP-Neuron 2a cells. Nature of the assay: Measurement of x-Fold (polyglutamine aggregation inhibitory activity). Format: cell-based. How it is done: In the present invention, the polyglutamine aggregation inhibitory activity (x-Fold) can be measured, for example, by the method described in the Example.
The number of the aggregated cells, and the total number of cells were counted by Array Scan V T1 (manufactured by Cellomics, Pittuburg, USA), and the ratio of the aggregated cells to the total number of cells was determined (x-Fold). […]

The subject of assay [2] is SOC (store operated calcium channel). Kind of assay: Measurement of SOC IC50 (thapsigargin store depletion, calcium re-addition, CHO cells). In kind it is cell-based. Conditions: read-out: SOC IC50. How it is done:
The SOC (store operated calcium channel)-suppressive action can be measured by the method described in the Example and using, for example, FDSS 3000.
CHO cell culture medium was replaced with a BSS solution which is an extracellular fluidfree of calcium, the compound of the present invention was added 1 min later, and 1 μM thapsigargin was allowed to act thereon 2 min later to deplete intracellular calcium store. […]

The mark [3] stands for this setting: TGase activity with compound (10 mM, 1 μL in 0.1 ml enzyme reaction solution), DMSO control taken as 100.
[4] abbreviates: TGase inhibitory activity value, Table 1.
The mark [5] stands for this setting: polyglutamine aggregation inhibitory activity, Table 1.
Where [6] appears, read: ratio of aggregated cells to total number of cells, compound 20 μM, 20 hr, almost 1 without compound, smaller = stronger inhibition.
Setting [7] is: Cricetulus griseus, CHO, CHO cells, 1 μM thapsigargin, 2 mM calcium chloride.
[8] abbreviates: Cricetulus griseus, CHO, Table 1.
[9] abbreviates: CHO cells, 1 μM thapsigargin, 2 mM calcium chloride.
Where [10] appears, read: TGase inhibitory activity measurement, unit not given.
The mark [11] stands for this setting: polyglutamine aggregation, Truncated N-terminal huntington 150 Q-EGFP-Neuron 2a cells.

Like-named read-outs stand apart in the source and are kept apart here.

For `NCCOB(c1ccccc1)c1cccc(COCc2ccccc2B(OCCN)c2ccccc2)c1` [Example 334], the “TGase activity remaining (% of DMSO control = 100)” value in the assay with transglutaminase (TGase) (setting [3]) and in the assay with transglutaminase (TGase) (setting [4]) was 21 throughout. Besides, the x-Fold in assay [1] (setting [5]) and in assay [1] (setting [6]) was 1.02 each time. Moreover, the IC50 in assay [2] (setting [7]) and in assay [2] (setting [8]) was 300 nM each time.
In the case of `Cc1ccc(B(O)c2ccc(COCc3ccc(B(O)c4ccc(C)cc4)cc3)cc2)cc1` [Example 361, bis(4-(4-methylphenylhydroxyboryl)benzyl)ether], the “TGase activity remaining (% of DMSO control = 100)” value with transglutaminase (TGase) (setting [3]) and with transglutaminase (TGase) (setting [4]) was 100 throughout. For the same compound, the x-Fold in assay [1] (setting [5]) and in assay [1] (setting [6]) was 0.88 each time. Also, the half-maximal inhibitory concentration (IC50) in assay [2] (setting [7]) and in assay [2] (setting [8]) was above 20000 nM throughout.
Consider `NCCOB(c1ccccc1)c1ccc(COc2ccc(B(OCCN)c3ccccc3)cc2)cc1` [Example 371, (4-phenylaminoethoxyborylphenyl)(4′-phenylaminoethoxyborylbenzyl)ether], for which the “TGase activity remaining (% of DMSO control = 100)” value in the assay with transglutaminase (TGase) (setting [3]) and in the assay with transglutaminase (TGase) (setting [4]) was 16 each time. The x-Fold in assay [1] (setting [5]) and in assay [1] (setting [6]) was 0.85 throughout. For the same compound, the half-maximal inhibitory concentration (IC50) in assay [2] (setting [7]) and in assay [2] (setting [8]) was 2000 nM throughout.
Take `CC(C)(C)c1cc(B(O)c2ccccc2)c2c(c1)C(C)(C)c1cc(C(C)(C)C)cc(B(O)c3ccccc3)c1O2` [Example 377, 4,5-di(phenylhydrixyboryl)-2,7-di-tert-butyl-9,9-dimethylxanthrene]: the “TGase activity remaining (% of DMSO control = 100)” value with transglutaminase (TGase) (setting [3]) and with transglutaminase (TGase) (setting [4]) was 70 throughout. The x-Fold in assay [1] (setting [5]) and in assay [1] (setting [6]) was 0.75 throughout. Besides, the IC50 in assay [2] (setting [7]) and in assay [2] (setting [8]) was above 20000 nM in each case.
Take `CNCCOB(c1ccccc1)c1ccc(Oc2ccc(B(OCCNC)c3ccccc3)cc2)cc1` [Example 386, bis(4,4′-(phenyl-N-methylaminoethoxyboryl)phenyl)ether]: the “TGase activity remaining (% of DMSO control = 100)” value in the assay with transglutaminase (TGase) (setting [3]) and in the assay on transglutaminase (TGase) (setting [4]) was 10 throughout. Also, the x-Fold in assay [1] (setting [5]) and in assay [1] (setting [6]) was 0.98 in each case. In assay [2] (setting [9]), the 50% inhibitory concentration (IC50) was 500 nM.
Turning to `NC(=O)CCC(N)C(=O)OB(c1ccccc1)c1ccc(Oc2ccc(B(OC(=O)C(N)CCC(N)=O)c3ccccc3)cc2)cc1` (centres unmarked) [Example 388, bis(4,4′-(phenyl-glutamineboryl)phenyl)ether], the “TGase activity remaining (% of DMSO control = 100)” value in the assay on transglutaminase (TGase) (setting [3]) is given as 41; in the assay on transglutaminase (TGase) (TGase inhibitory activity value, Table 1, listed as 7085), 41. Besides, the x-Fold is 0.67 in assay [1] (polyglutamine aggregation inhibitory activity, Table 1, listed as 7085) and 0.67 in assay [1] (setting [6]). The 50% inhibitory concentration (IC50) in assay [2] (setting [9]) is 500 nM.
As for `CNCCOB(c1ccccc1)c1ccc(Oc2ccc(B(OCCNC)c3ccc(CO)cc3)cc2)cc1` [Example 391, (4-(phenyl-N-methylaminoethoxyboryl)phenyl)(4′-(hydroxymethylphenyl-N-methylaminoethoxyboryl)phenyl)ether], the “TGase activity remaining (% of DMSO control = 100)” value in the assay with transglutaminase (TGase) (setting [3]) and in the assay on transglutaminase (TGase) (setting [4]) was 15 in each case. Moreover, the x-Fold in assay [1] (setting [5]) and in assay [1] (setting [6]) was 0.32 each time. Also, the IC50 in assay [2] (setting [7]) and in assay [2] (setting [8]) was 500 nM throughout.
In the case of `NC(=O)CCC(N)C(=O)OB(c1ccccc1)c1ccc(Oc2ccc(B(OC(=O)C(N)CCC(N)=O)c3ccc(CO)cc3)cc2)cc1` (centres unmarked) [Example 394, (4-(phenyl-glutamineboryl)phenyl)(4′-(hydroxymethylphenyl-glutamineboryl)phenyl)ether], the “TGase activity remaining (% of DMSO control = 100)” value in the assay on transglutaminase (TGase) (setting [3]) and with transglutaminase (TGase) (setting [4]) was 41 in each case. Besides, the x-Fold in assay [1] (setting [5]) and in assay [1] (setting [6]) was 0.44 in each case. Also, the IC50 in assay [2] (setting [7]) and in assay [2] (setting [8]) was 1500 nM in each case.
`NCCNCCOB(c1ccccc1)c1ccc(Oc2ccc(B(OCCNCCN)c3ccccc3)cc2)cc1` [Example 396, bis(4,4′-(phenyl-N-aminoethyl-aminoethoxyboryl)phenyl)ether]: the “TGase activity remaining (% of DMSO control = 100)” value with transglutaminase (TGase) (setting [3]) and in the assay on transglutaminase (TGase) (setting [4]) was 3 throughout. In addition, the x-Fold in assay [1] (setting [5]) and in assay [1] (setting [6]) was 0.58 each time. For the same compound, in assay [2] (setting [9]), the half-inhibitory concentration (IC50) came to 1200 nM.
Turning to `NC(=O)CC(N)C(=O)OB(c1ccccc1)c1cccc(COCc2cccc(B(OC(=O)C(N)CC(N)=O)c3ccccc3)c2)c1` (centres unmarked) [Example 404, bis(3,3′-(phenyl-asparagineboryl)benzyl)ether], the “TGase activity remaining (% of DMSO control = 100)” value with transglutaminase (TGase) (setting [3]) is 105; with transglutaminase (TGase) (TGase inhibitory activity measurement, unit not given, listed as 2023) it was 105. Also, the x-Fold in assay [1] (polyglutamine aggregation, Truncated N-terminal huntington 150 Q-EGFP-Neuron 2a cells, listed as 2023) stood at 1.07; in assay [1] (setting [6]), 1.07. For the same compound, the concentration for half-maximal inhibition (IC50) turned out to be 4000 nM in assay [2] (setting [7]) and 4000 nM in assay [2] (Cricetulus griseus, CHO, CHO cells, thapsigargin store depletion).
With `NCCCCC(N)C(=O)OB(c1ccccc1)c1ccc(COCc2ccc(B(OC(=O)C(N)CCCCN)c3ccccc3)cc2)cc1` (centres unmarked) [Example 409, bis(4,4′-(phenyl-lysineboryl)benzyl)ether], the “TGase activity remaining (% of DMSO control = 100)” value in the assay on transglutaminase (TGase) (setting [3]) and with transglutaminase (TGase) (setting [10]) was 29 in each case. Moreover, the x-Fold in assay [1] (setting [11]) and in assay [1] (setting [6]) was 0.86 in each case. Moreover, the IC50 in assay [2] (setting [9]) was 1500 nM.
Take `COc1ccc(B(O)c2ccc(COCc3ccc(B(O)c4ccc(OC)cc4)cc3)cc2)cc1` [Example 410, bis(4,4′-(p-methoxy-phenyl-hydroxyboryl)benzyl)ether]: the “TGase activity remaining (% of DMSO control = 100)” value in the assay with transglutaminase (TGase) (setting [3]) stood at 130. The x-Fold in assay [1] (setting [6]) is reported as 0.90. The 50% inhibitory concentration (IC50) in assay [2] (setting [9]) turned out to be 2000 nM.
Turning to `COc1ccc(B(OCCN)c2ccc(COCc3ccc(B(OCCN)c4ccc(OC)cc4)cc3)cc2)cc1` [Example 412, bis(4,4′-(p-methoxyphenyl-aminoethoxyboryl)benzyl)ether], the “TGase activity remaining (% of DMSO control = 100)” value in the assay with transglutaminase (TGase) (setting [3]) and with transglutaminase (TGase) (setting [10]) was 65 in each case. Also, the x-Fold in assay [1] (setting [11]) and in assay [1] (setting [6]) was 0.89 in each case. The IC50 in assay [2] (setting [9]) was found to be 2000 nM.
Turning to `CNCCOB(c1ccc(COCc2ccc(B(OCCNC)c3ccc(OC)cc3)cc2)cc1)c1ccc(OC)cc1` [Example 413, bis(4,4′-(p-methoxyphenyl-N-methylaminoethoxyboryl)benzyl)ether], the “TGase activity remaining (% of DMSO control = 100)” value in the assay on transglutaminase (TGase) (setting [3]) and in the assay on transglutaminase (TGase) (setting [10]) was 28 each time. Further, the x-Fold in assay [1] (setting [11]) and in assay [1] (setting [6]) was 0.81 in each case. In assay [2] (setting [9]), the IC50 worked out at 800 nM.
Take `Cc1ccc(B(OCCN)c2ccc(COCc3ccc(B(OCCN)c4ccc(C)c(Cl)c4)cc3)cc2)cc1Cl` [Example 420, bis(4,4′-(3-chloro-4-methylphenyl-aminoethoxyboryl)benzyl)ether]: the “TGase activity remaining (% of DMSO control = 100)” value with transglutaminase (TGase) (setting [3]) and in the assay with transglutaminase (TGase) (setting [10]) was −3 each time. The x-Fold in assay [1] (setting [11]) and in assay [1] (setting [6]) was 0.81 each time. Further, the 50% inhibitory concentration (IC50) in assay [2] (setting [9]) was 1200 nM.
`CNCCOB(c1ccc(COCc2ccc(B(OCCNC)c3ccc(C)c(Cl)c3)cc2)cc1)c1ccc(C)c(Cl)c1` [Example 421, bis(4,4′-(3-chloro-4-methylphenyl-N-methylaminoethoxyboryl)benzyl)ether]: the “TGase activity remaining (% of DMSO control = 100)” value in the assay with transglutaminase (TGase) (setting [3]) and in the assay on transglutaminase (TGase) (setting [10]) was −1 throughout. Besides, the figures for the x-Fold in assay [1] (setting [5]), in assay [1] (setting [11]) and in assay [1] (setting [6]) were 0.87, 1.03 and 1.03, respectively. Besides, in assay [2] (setting [9]), the 50% inhibitory concentration (IC50) was 1200 nM.
